The text below walks through data of patent US7871999B2, “Substituted thiazoles and their use for producing drugs” (Gruenenthal GmbH, priority 2005, dated 2011).

For assay [1], the target named is T1, mGluR5 receptor (Sus scrofa, UniProt I3LUI7).
T1 construct: pig brain hemispheres without medulla, cerebellum and pons ... differential centrifugation at 900×g and 40,000×g
The assay can be described thus: Inhibition of [^3H]-MPEP binding in the mGluR5 receptor binding assay (pig brain homogenate). The note with it: 5 nM [^3H]-MPEP; for inhibition at 1 µM: 1 μM test compound. As for the experimental part: I. Method for Determining the Inhibition of [^3H]-MPEP Binding in the mGluR5 Receptor Binding Assay […]
The batches are then filtered with the assistance of a Brandel Cell Harvester (Brandel, Robotic 9600 model) on Unifilter plates with glass filter mats (Perkin Elmer, order number 6005177) and then washed 3 times with buffer (as above) using 250 μl per sample. The filter plates are then dried for 60 min at 55° C. Then 30 μl of Ultima Gold™ scintillating material (Packard BioScience, order number 6013159) is added per well and after 3 hours the samples are measured using the β counter (Microbeta, Perkin Elmer). Nonspecific binding is determined by the addition of 10 μM MPEP (Tocris, order number 1212).

Assay [2] deals with T2, mGluR5 receptor (Homo sapiens, UniProt P41594).
T2 construct: host or cells: CHO cells (CHO-hmGluR5), incubated overnight with doxycycline
The assay can be described thus: Functional Ca^2+ influx assay in the mGluR5 receptor assay (CHO-hmGluR5 cells, DHPG 10 μM). The format is cell-based. The note with it: Ki=IC50/(1+(AGconc./EC50)). From the text:
II. Method for Determining Ca^2+ Influx in the mGluR5 Receptor Assay
[…] According to this assay, intracellular Ca^2+ release is quantified after activation of the mGluR5 receptor with the assistance of a Ca^2+-sensitive dye (type Fluo-4, Molecular Probes Europe BV, Leiden, Netherlands) in a FlexStation (Molecular Devices, Sunnyvale, USA).
Description of the Functional Ca^2+ Influx Assay
20,000 CHO-hmGluR5 cells/well (Euroscreen, Gosselies, Belgium) are pipetted out into 96 well plates (BD Biosciences, Heidelberg, Germany, Ref. 356640, clear bottom, 96 well, poly-D-lysine) and incubated overnight in HBSS buffer (Gibco No. 14025-050) with the following additives: 10% FCS (GIBCO, 10270-106) and doxycycline (BD Biosciences Clontech 631311 600 ng/ml).
For the purpose of functional investigation, the cells were loaded with 2 μM Fluo-4 and 0.01 vol. % Pluronic F127 (Molecular Probes Europe BV, Leiden, Netherlands) in HBSS buffer (Hank's buffered saline solution, Gibco Invitrogen GmbH, Karlsruhe, Germany) with Probenicid (Sigma P8761, 0.69 mg/ml) for 30 min at 37° C.
The cells are then washed 3 times with washing buffer (HBSS buffer, Gibco No. 14025-050, with Probenicid (Sigma P8761, 0.69 mg/ml) and then resuspended with the same buffer to make up to 100 μl. After 15 min, the plates are transferred for determination of Ca^2+ measurements in the presence of DHPG ((S)-3,5-dihydroxyphenylglycine, Tocris Biotrend Chemikalien GmbH, Cologne, Germany, final DHPG concentration: 10 μM) and in the presence or absence of test substances into a FLuorometric Imaging Plate Reader (FLIPR, Molecular Devices, Sunnyvale, Calif.).
Ca^2+-dependent fluorescence is measured before and after addition of test substances. Quantification proceeds by measuring the highest fluorescence intensity over time.
After recording a fluorescence baseline for 10 s, 50 μl of test substance solution (various test substance concentrations in HBSS buffer with 1% DMSO and 0.02% Tween 20, Sigma) are added and the fluorescence signal is measured for 6 min. Then, 50 μl of DHPG solution ((S)-3,5-dihydroxyphenylglycine, Tocris Biotrend Chemikalien GmbH, Cologne, Germany, final DHPG concentration: 10 μM) are added and Ca^2+ influx is simultaneously measured for 60 s. The final DMSO concentration amounts to 0.25% and the final Tween 20 content amounts to 0.005%. The data are analysed with Microsoft Excel and GraphPad Prism. The dose-response curves are calculated with non-linear regression and IC50 values are determined. Each data point is determined in triplicate and IC50 values are averaged from a minimum of 2 independent measurements.
Ki values are calculated using the following formula: Ki=IC50/(1+(AGconc./EC50)).
AGconc.=10 μM; EC50 corresponds to the DHPG concentration which is necessary for the semimaximal influx of Ca^2+.

Each structure is given as a SMILES string.

T2 sequence (P41594 21-1212): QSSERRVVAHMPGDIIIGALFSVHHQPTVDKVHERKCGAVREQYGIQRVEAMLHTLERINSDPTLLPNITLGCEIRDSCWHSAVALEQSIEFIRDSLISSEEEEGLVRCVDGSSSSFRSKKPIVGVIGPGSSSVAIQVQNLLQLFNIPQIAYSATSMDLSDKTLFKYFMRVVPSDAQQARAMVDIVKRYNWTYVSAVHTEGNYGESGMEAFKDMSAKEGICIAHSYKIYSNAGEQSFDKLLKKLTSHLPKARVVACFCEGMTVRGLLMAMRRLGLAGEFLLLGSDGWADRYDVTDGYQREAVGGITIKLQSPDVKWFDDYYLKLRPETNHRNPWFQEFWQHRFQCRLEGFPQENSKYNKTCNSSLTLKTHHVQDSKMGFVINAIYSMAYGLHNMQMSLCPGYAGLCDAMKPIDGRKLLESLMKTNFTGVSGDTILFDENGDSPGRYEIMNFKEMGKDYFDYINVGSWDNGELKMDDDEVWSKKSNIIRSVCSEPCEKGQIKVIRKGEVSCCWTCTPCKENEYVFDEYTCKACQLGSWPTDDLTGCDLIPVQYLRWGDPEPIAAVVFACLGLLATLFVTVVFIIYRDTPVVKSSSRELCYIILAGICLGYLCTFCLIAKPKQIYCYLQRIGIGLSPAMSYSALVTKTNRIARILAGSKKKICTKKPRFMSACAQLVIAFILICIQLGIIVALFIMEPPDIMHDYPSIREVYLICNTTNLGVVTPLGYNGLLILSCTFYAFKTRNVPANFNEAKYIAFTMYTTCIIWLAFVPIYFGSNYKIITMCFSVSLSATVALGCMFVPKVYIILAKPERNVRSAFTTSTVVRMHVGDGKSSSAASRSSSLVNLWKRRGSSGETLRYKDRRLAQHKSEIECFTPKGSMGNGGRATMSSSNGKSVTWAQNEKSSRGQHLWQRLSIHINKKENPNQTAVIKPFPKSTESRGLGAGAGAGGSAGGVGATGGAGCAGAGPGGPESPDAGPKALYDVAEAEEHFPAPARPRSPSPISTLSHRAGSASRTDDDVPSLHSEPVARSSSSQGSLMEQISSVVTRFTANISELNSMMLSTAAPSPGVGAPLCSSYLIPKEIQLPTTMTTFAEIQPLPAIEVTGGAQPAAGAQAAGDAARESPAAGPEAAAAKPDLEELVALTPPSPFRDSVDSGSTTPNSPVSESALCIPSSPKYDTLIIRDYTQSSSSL
T1 sequence (I3LUI7 1-1212): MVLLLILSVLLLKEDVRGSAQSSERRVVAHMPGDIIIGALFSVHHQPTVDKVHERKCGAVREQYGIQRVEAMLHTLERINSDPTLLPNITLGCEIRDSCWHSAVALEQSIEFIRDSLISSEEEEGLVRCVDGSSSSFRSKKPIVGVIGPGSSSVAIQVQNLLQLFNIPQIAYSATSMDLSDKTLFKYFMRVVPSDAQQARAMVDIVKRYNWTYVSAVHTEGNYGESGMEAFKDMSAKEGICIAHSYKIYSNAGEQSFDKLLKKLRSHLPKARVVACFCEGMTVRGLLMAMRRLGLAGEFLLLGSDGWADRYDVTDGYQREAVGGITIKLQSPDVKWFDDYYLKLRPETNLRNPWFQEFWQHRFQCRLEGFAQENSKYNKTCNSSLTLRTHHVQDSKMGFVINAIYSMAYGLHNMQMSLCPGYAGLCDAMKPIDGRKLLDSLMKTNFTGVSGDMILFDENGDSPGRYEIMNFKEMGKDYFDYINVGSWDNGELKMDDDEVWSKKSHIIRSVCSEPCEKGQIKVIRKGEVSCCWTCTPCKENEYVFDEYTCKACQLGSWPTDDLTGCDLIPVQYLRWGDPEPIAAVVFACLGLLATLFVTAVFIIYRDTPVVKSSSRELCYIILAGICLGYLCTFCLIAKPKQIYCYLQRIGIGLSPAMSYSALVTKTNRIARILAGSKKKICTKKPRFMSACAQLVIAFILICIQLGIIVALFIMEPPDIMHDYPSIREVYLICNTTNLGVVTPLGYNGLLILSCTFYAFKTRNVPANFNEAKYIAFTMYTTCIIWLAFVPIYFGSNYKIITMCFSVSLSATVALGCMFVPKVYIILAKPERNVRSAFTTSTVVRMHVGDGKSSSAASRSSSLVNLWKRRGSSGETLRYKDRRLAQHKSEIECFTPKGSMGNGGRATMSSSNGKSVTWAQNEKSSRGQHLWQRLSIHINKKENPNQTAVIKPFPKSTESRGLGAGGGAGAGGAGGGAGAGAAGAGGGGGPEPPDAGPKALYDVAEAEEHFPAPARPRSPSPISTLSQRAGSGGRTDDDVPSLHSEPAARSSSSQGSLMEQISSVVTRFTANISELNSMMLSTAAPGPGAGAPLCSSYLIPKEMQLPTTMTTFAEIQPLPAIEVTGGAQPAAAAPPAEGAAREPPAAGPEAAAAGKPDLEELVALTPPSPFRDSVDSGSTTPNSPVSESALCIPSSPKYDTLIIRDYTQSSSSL

As usually defined, the IC50 is the concentration needed to halve the response being measured. By Ki is commonly meant the dissociation constant of the complex between target and ligand, obtained from inhibition or displacement. A lower Ki goes with a stronger hold on the target. Molecule `CN(CCN(C)c1nccs1)C(=O)C#Cc1cccc(C#N)c1` [Example 13, N-methyl-N-(2-(methyl(thiazol-2-yl)amino)ethyl)-3-(3-cyanophenyl)-propiolamide] had an IC50 in assay [1] of 87 nM. Moreover, affinity in assay [2] was put at a Ki of 20.8 nM.

For the molecule `O=C(C#Cc1ccccc1)NC1CCCN(c2nccs2)C1` (stereo not shown) [Example 15, 3-Phenyl-N-(1-(thiazol-2-yl)piperidin-3-yl)propiolamide], the IC50 in assay [1] was determined as 86 nM. The same molecule displayed a Ki in assay [2] of 14.4 nM.

`CN(c1nccs1)C1CN(C(=O)C#Cc2cccc(Cl)c2)C1` [Example 35, 1-(3-(3-Chlorophenyl)propioloyl)-3-(methyl(thiazol-2-yl)amino)azetidine] registered an IC50 in assay [1] of 2.2 nM. In assay [2], this molecule returned a Ki of 6.5 nM.

In the case of `CCOC(=O)c1csc(N(C)CCNC(=O)C#Cc2cccc(Cl)c2)n1` [Example 26, N-(2-(methyl-(4-ethoxycarbonylthiazol-2-yl)amino)ethyl)-3-(3-chlorophenyl)-propiolamide], the IC50 in assay [1] came to 86 nM. This molecule also registered a Ki in assay [2] of 3.6 nM.

The term inhibition denotes the share of the control response that was lost under treatment. Low values mean a response near the control, high ones a response far below the control. `CC(C)(C)c1csc(N2CCC(NC(=O)C#Cc3ccccc3F)C2)n1` (stereo not shown) [Example 61, N-(1-(4-tert.-butylthiazol-2-yl)pyrrolidin-3-yl)-3-(2-fluorophenyl)propiolamide] gave an inhibition at 1 µM in assay [1] of 28%.

With `CN(CCNC(=O)C#Cc1cccc(Cl)c1)c1nc(Br)cs1` [Example 33, N-(2-((4-bromothiazol-2-yl)(methyl)amino)ethyl)-3-(3-chlorophenyl)propiolamide], in assay [1], the IC50 came out at 13 nM. Further, the Ki in assay [2] was found to be 10 nM.

In assay [1], `O=C(C#Cc1ccccc1)NC1CN(c2nccs2)C1` [Example 8, 3-Phenyl-N-(1-(thiazol-2-yl)azetidin-3-yl)propiolamide] had an IC50 of 10200 nM.

`O=C(C#Cc1cccc(Cl)c1)NC1CCCN(c2nccs2)C1` (stereo not shown) [Example 32, 3-(3-chlorophenyl)-N-(1-(thiazol-2-yl)piperidin-3-yl)-propiolamide]: the IC50 in assay [1] worked out at 5 nM. In addition, the Ki in assay [2] is 4 nM.

Regarding `Cc1nc(N2CCC(NC(=O)C#Cc3cccc(C(F)(F)F)c3)C2)sc1C` (stereo not shown) [Example 85, N-(1-(4,5-dimethylthiazol-2-yl)pyrrolidin-3-yl)-3-(3-(trifluoromethyl)phenyl)-propiolamide], in assay [1], testing at 1 µM gave an inhibition of 41%.

With `O=C(C#Cc1ccccc1)N1CCCN(c2nccs2)CC1` [Example 3, 1-Thiazol-2-yl-4-(3-phenylpropioloyl)-1,4-diazepane], the half-inhibitory concentration (IC50) in assay [1] amounted to 590 nM.

On to `CC(C)(C)c1csc(N2CCC(NC(=O)C#Cc3ccc(F)cc3)C2)n1` (stereo not shown) [Example 57, N-(1-(4-tert.-butylthiazol-2-yl)pyrrolidin-3-yl)-3-(4-fluorophenyl)propiolamide], for which the inhibition at 1 µM in assay [1] was found to be 26%.

On to `CCN(CCNC(=O)C#Cc1cccc(Cl)c1)c1nccs1` [Example 41, 3-(3-Chlorophenyl)-N-(2-(ethyl(thiazol-2-yl)amino)ethyl)propiolamide], for which, in assay [1], the IC50 turned out to be 4.1 nM.

The molecule `Cc1csc(N2CCC(NC(=O)C#Cc3ccccc3)C2)n1` (stereo not shown) [Example 45, N-(1-(4-methylthiazol-2-yl)pyrrolidin-3-yl)-3-phenylpropiolamide] displayed an inhibition at 1 µM in assay [1] of 59%.

In assay [1], `COc1cccc(C#CC(=O)NC2CCN(c3nc(C)cs3)C2)c1` (stereo not shown) [Example 46, 3-(3-methoxyphenyl)-N-(1-(4-methylthiazol-2-yl)pyrrolidin-3-yl)propiolamide] gave an inhibition at 1 µM of 48%.

`CN(c1ncc(F)s1)C1CN(C(=O)C#Cc2cccc(Cl)c2)C1` [Example 43, 1-(3-(3-Chlorophenyl)propioloyl)-3-(methyl(5-fluorothiazol-2-yl)amino)azetidine] yielded an IC50 in assay [1] of 74 nM.

As for `CN(CCN(C)c1nccs1)C(=O)C#Cc1ccccc1` [Example 4, N-Methyl-N-(2-(methyl(thiazol-2-yl)amino)ethyl)-3-phenylpropiolamide], in assay [1], the IC50 is 57 nM. In assay [2], this molecule returned an inhibition constant Ki of 5.2 nM.

For the molecule `Cc1cccc(C#CC(=O)NCCN(C)c2nccs2)c1` [Example 21, N-(2-(methyl(thiazol-2-yl)amino)ethyl)-3-(tol-3-yl)-propiolamide], in assay [1], the half-maximal inhibitory concentration (IC50) was found to be 8.3 nM.

Molecule `CC(C)(C)c1csc(N2CCC(NC(=O)C#Cc3ccccc3)C2)n1` (stereo not shown) [Example 60, N-(1-(4-tert.-butylthiazol-2-yl)pyrrolidin-3-yl)-3-phenylpropiolamide] registered an inhibition at 1 µM in assay [1] of 30%.

The molecule `Cc1ccc(C#CC(=O)NC2CCN(c3ncc(C)s3)C2)cc1` (stereo not shown) [Example 73, N-(1-(5-methylthiazol-2-yl)pyrrolidin-3-yl)-3-p-tolylpropiolamide] displayed an inhibition at 1 µM in assay [1] of 18%.

`Cc1cnc(N2CCC(NC(=O)C#Cc3cccc(Cl)c3)C2)s1` (stereo not shown) [Example 112, 3-(3-chlorophenyl)-N-(1-(5-methylthiazol-2-yl)pyrrolidin-3-yl)propiolamide] came in with an inhibition at 1 µM in assay [1] of 24%.

In assay [1], `CN(CCNC(=O)C#Cc1cccc(Cl)c1)c1ncc(Br)s1` [Example 31, N-(2-((5-Bromothiazol-2-yl)(methyl)amino)ethyl)-3-(3-chlorophenyl)propiolamide] had a concentration for half-maximal inhibition (IC50) of 13 nM.

As for `CN(C(=O)C#Cc1ccccc1)C1CCCN(c2nccs2)C1` (stereo not shown) [Example 16, N-methyl-N-(1-(thiazol-2-yl)piperidin-3-yl)-3-phenylpropiolamide], the IC50 in assay [1] was found to be 140 nM.

In the case of `CN(CCNC(=O)C#Cc1cccc(Cl)c1)c1nccs1` [Example 19, N-(2-(Methyl(thiazol-2-yl)amino)ethyl)-3-(3-chlorophenyl)-propiolamide], the IC50 in assay [1] was determined as 1.9 nM. This molecule had a Ki in assay [2] of 0.4 nM.

For `COc1cccc(C#CC(=O)NC2CCN(c3nc(C)c(C)s3)C2)c1` (stereo not shown) [Example 90, N-(1-(4,5-dimethylthiazol-2-yl)pyrrolidin-3-yl)-3-(3-methoxyphenyl)propiolamide], in assay [1], 1 µM produced 34% inhibition.

For `O=C(C#Cc1ccccc1)N1CCC(Nc2nccs2)C1` (stereo not shown) [Example 11, 3-(Thiazol-2-yl-amino)-1-(3-phenylpropioloyl)pyrrolidine], the IC50 in assay [1] amounted to 2180 nM.

The molecule `Cc1nc(N2CCC(NC(=O)C#Cc3ccccc3)C2)sc1C` (stereo not shown) [Example 51, N-(1-(4,5-dimethylthiazol-2-yl)pyrrolidin-3-yl)-3-phenylpropiolamide] had an inhibition at 1 µM in assay [1] of 48%.

In assay [1], `CN(CCN(C)c1nccs1)C(=O)C#Cc1ccccn1` [Example 17, N-Methyl-N-(2-(methyl(thiazol-2-yl)amino)ethyl)-3-(pyrid-2-yl)-propiolamide] gave an IC50 of 1250 nM.

The molecule `CC(C)(C)c1csc(N2CCC(NC(=O)C#Cc3cccnc3)C2)n1` (stereo not shown) [Example 123, N-(1-(4-tert.-butylthiazol-2-yl)pyrrolidin-3-yl)-3-(pyridin-3-yl)propiolamide] yielded an inhibition at 1 µM in assay [1] of 20%.

In assay [1], `O=C(C#Cc1cccc(Cl)c1)NC1CN(c2nccs2)C1` [Example 39, 3-(3-chlorophenyl)-N-(1-(thiazol-2-yl)azetidin-3-yl)-propiolamide] yielded an IC50 of 390 nM.

In assay [1], `CN(C(=O)C#Cc1ccccc1)C1CN(c2nccs2)C1` [Example 20, N-methyl-N-(1-(thiazol-2-yl)azetidin-3-yl)-3-phenylpropiolamide] registered an IC50 of 280 nM.

Molecule `Cc1cccc(C#CC(=O)NC2CCN(c3nc(C)c(C)s3)C2)c1` (stereo not shown) [Example 82, N-(1-(4,5-dimethylthiazol-2-yl)pyrrolidin-3-yl)-3-m-tolylpropiolamide] returned an inhibition at 1 µM in assay [1] of 81%.

With `CN(CCNC(=O)C#Cc1cccc(Cl)c1)c1ncc(F)s1` [Example 126, 3-(3-Chlorophenyl)-N-(2-((5-fluorothiazol-2-yl)(methyl)amino)ethyl)propiolamide], in assay [1], the IC50 was 16 nM.
